Laboratory results taken from patent US4122184A, “Benzimidazole insecticides” (priority 1977, dated 1978).

Key:
[1] = test system: Alfalfa Weevil Larvae; assay: Field trial, stomach poison test; assay type: in vivo
Summary of the method: (§1)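 Mortality scored 0–9 at 24, 48 and 72 h after insects fed on treated leaves. Leaves sprayed at 10 psi or dipped in test solutions, air-dried; 5 or 10 insects/dish, 1–2 replicates, typically 2–3 rates per compound. Values are average mortality per concentration.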

[2] = test system: Aphids - Apple; assay: Field trial, stomach poison test; assay type: in vivo
Summary of the method: as §1

[3] = test system: Aphids - Sour Gum; assay: Field trial, stomach poison test; assay type: in vivo
Summary of the method: as §1

[4] = test system: Aphids - Tulip Tree; assay: Field trial, stomach poison test; assay type: in vivo
Summary of the method: as §1

[5] = test system: Asparagus Beetles Adults; assay: Field trial, stomach poison test; assay type: in vivo
Summary of the method: as §1

[6] = test system: Bagworms; assay: Field trial, stomach poison test; assay type: in vivo
Summary of the method: as §1

[7] = test system: Elm Leaf Beetle; assay: Field trial, stomach poison test; assay type: in vivo
Summary of the method: as §1

[8] = test system: Meadow Spittlebug; assay: Field trial, stomach poison test; assay type: in vivo
Summary of the method: as §1

[9] = test system: Potato Flea Beetle Adults; assay: Field trial, stomach poison test; assay type: in vivo
Summary of the method: as §1

[10] = test system: Red-Legged Grasshopper Adults; assay: Field trial, stomach poison test; assay type: in vivo
Summary of the method: as §1

[11] = test system: Walnut Caterpillar; assay: Field trial, stomach poison test; assay type: in vivo
Summary of the method: as §1

[12] = test system: Armyworm, P. Unipuncta; assay: Field trial, contact poison test; assay type: in vivo
Summary of the method: (§2)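 Contact spray, atomizer 10 psi, arm's length, several concentrations; infested plants in water bottles, stems wrapped in cellucotton, plants spaced apart. Scored 24, 48, 72 h; scale 0–9 by percent mortality.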

[13] = test system: Eastern Tent Caterpillar; assay: Field trial, contact poison test; assay type: in vivo
Summary of the method: as §2

[14] = test system: Elm Leaf Beetle; assay: Field trial, contact poison test; assay type: in vivo
Summary of the method: as §2

[15] = test system: Walnut Caterpillar; assay: Field trial, contact poison test; assay type: in vivo
Summary of the method: as §2

[16] = test system: Alfalfa Weevil Larvae; assay: Field trial, topical application; assay type: in vivo
Description: The results are read at 24, 48, and 72 hours when applicable. The rating scale is 0 to 9 where 0 = 0-10 percent and 9 = 91-100 percent mortality.
(§3) In a variation of the above test, 1 microliter of a test solution containing a predetermined number of micrograms of benzimidazole was applied directly to larvae or adult insects.
Using the above methods, field trials were carried out against species of 5 orders of insects. The results, which are summarized in the following tables, give the average mortality for the particular insect with a given benzimidazole for each concentration employed. […] These tables contain all results obtained during the summer trials.

[17] = test system: Mexican Bean Beetle; assay: Field trial (first summer), topical; assay type: in vivo, Epilachna varivestis
Description: as §3
(§4) During the previous summer similar field trials were conducted employing the same tests as heretofore but with some additional species of insects not included in the later tests. The results listed below are for tests in which an insect mortality was established by a given application route and at a given concentration in a particular test. The same 0 - 9 scoring system is used as is the designation of compounds by alphabetical symbols.

[18] = test system: Confused Flour Beetle; assay: Field trial (first summer), topical; assay type: in vivo
Summary of the method: (§5)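 Field trial from the first summer in which 1 µl of test solution holding a set number of micrograms of benzimidazole was applied topically to larvae or adult insects. Mortality at a given route and concentration was scored on a 0–9 scale.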

[19] = test system: Picnic Beetle; assay: Field trial (first summer), topical; assay type: in vivo; conditions: .078125 μg/μl
Summary of the method: as §5

[20] = test system: Picnic Beetle; assay: Field trial (first summer), stomach; assay type: in vivo; conditions: 250 ppm
Description: Leaves from the infested plant are treated with different concentrations of the test compounds, either by spraying with a DeVilbiss Special Atomizer (5004) at 10 psi or by dipping the leaves in solutions containing the compound. The leaves are then allowed to air dry.
After the leaves have dryed, they are placed in plastic petri dishes (100 × 25 mm), then the insects are counted out into each dish, five or ten insects per dish depending on the number of insects available. There are one or two replicates and usually two or three rates with each compound. Mortality results are taken at 24, 48 and 72 hours. The rating scale is 0 to 9.
as §4

[21] = test system: Differential Grasshopper; assay: Field trial (first summer), contact; assay type: in vivo
[22] = test system: Meadow Grasshopper; assay: Field trial (first summer), contact; assay type: in vivo; conditions: 125 ppm
[23] = test system: Mosquito Larvae; assay: Mosquito larvae test (dip test); assay type: in vivo, Aedes aegypti; conditions: 48 h
Description: Aedes aegypti larvae 5 days old are allowed to feed on fresh food for at least 3 hours previous to being placed on test. Larvae are then removed from the rearing pans by pouring on a 20 mesh screen, washing with deionized water, and pooling in a 6-inch white enameled sauce pan.
Twenty larvae are placed in a 1 oz. paper cup containing 25 ml. of deionized water.
Test chemicals are dissolved in a suitable solvent and pipetted under the surface of 225 ml. of deionized water in one pint wide-mouthed Mason jar test containers and stirred. A cup containing 20 larvae in 25 ml. of water is then added. […]
Results are determined 48 hours later by counting the dead and moribund larvae. […] Moribund larvae are those that are capable of limited, or poorly coordinated, locomotion in a sluggish manner.
Live larvae respond normally and actively.

In the case of O=[N+]([O-])c1cc(C(F)(F)F)cc2nc(C(F)(F)F)[nH]c12 [A, 2,6-bis(trifluoromethyl)-4-nitrobenzimidazole], the average mortality rating ([1]; 125 ppm) is reported as 7, the average mortality rating ([1]; 250 ppm) is reported as 7 and the average mortality rating ([1]; 500 ppm) is reported as 7. For the same compound, the average mortality rating ([2]; 25 ppm) was 1, the average mortality rating ([2]; 50 ppm) was 4 and the average mortality rating ([2]; 100 ppm) was 4. For the same compound, the average mortality rating ([3]; 25 ppm) was 7, the average mortality rating ([3]; 50 ppm) was 9 (91-100 percent mortality) and the average mortality rating ([3]; 100 ppm) was 9 (91-100 percent mortality). It also gave an average mortality rating ([4]; 25 ppm) of 8, an average mortality rating ([4]; 50 ppm) of 5 and an average mortality rating ([4]; 100 ppm) of 8. The average mortality rating ([5]; 5 ppm) was 0 (0-10 percent), the average mortality rating ([5]; 10 ppm) was 3 and the average mortality rating ([5]; 25 ppm) was 9 (91-100 percent mortality). For the same compound, the average mortality rating ([6]; 500 ppm) was 1, the average mortality rating ([6]; 750 ppm) was 0 (0-10 percent) and the average mortality rating ([6]; 1000 ppm) was 0 (0-10 percent). For the same compound, the average mortality rating ([6]; 1500 ppm) was 1, the average mortality rating ([6]; 2500 ppm) was 0 (0-10 percent) and the average mortality rating ([6]; 5000 ppm) was 1. The average mortality rating ([7]; 125 ppm) was 3, the average mortality rating ([7]; 250 ppm) was 0 (0-10 percent) and the average mortality rating ([7]; 500 ppm) was 5. For the same compound, the average mortality rating ([8]; 10 ppm) was 2, the average mortality rating ([8]; 25 ppm) was 0 (0-10 percent) and the average mortality rating ([8]; 50 ppm) was 1. The average mortality rating ([9]; 10 ppm) was 9 (91-100 percent mortality), the average mortality rating ([9]; 25 ppm) was 6 and the average mortality rating ([9]; 50 ppm) was 9 (91-100 percent mortality). For the same compound, the average mortality rating ([9]; 100 ppm) was 9 (91-100 percent mortality), the average mortality rating ([10]; 10 ppm) was 0 (0-10 percent) and the average mortality rating ([10]; 25 ppm) was 4. The average mortality rating ([10]; 50 ppm) was 6, the average mortality rating ([11]; 50 ppm) was 1 and the average mortality rating ([11]; 100 ppm) was 3. For the same compound, the average mortality rating ([11]; 250 ppm) was 3, the average mortality rating ([12]; 125 ppm) was 0 (0-10 percent) and the average mortality rating ([12]; 250 ppm) was 1. The average mortality rating ([12]; 500 ppm) was 3, the average mortality rating ([13]; 50 ppm) was 0 (0-10 percent) and the average mortality rating ([13]; 100 ppm) was 3. The average mortality rating ([13]; 250 ppm) was 5, the average mortality rating ([13]; 500 ppm) was 5 and the average mortality rating ([14]; 250 ppm) was 0 (0-10 percent). The average mortality rating ([14]; 500 ppm) was 7, the average mortality rating ([14]; 1000 ppm) was 9 (91-100 percent mortality) and the average mortality rating ([15]; 25 ppm) was 1. It also gave an average mortality rating ([15]; 50 ppm) of 1, an average mortality rating ([15]; 100 ppm) of 1 and an average mortality rating ([15]; 250 ppm) of 7. It also gave an average mortality rating ([16]; 0.03 μg/μl) of 2, an average mortality rating ([16]; 0.07 μg/μl) of 2 and an average mortality rating ([16]; 0.1 μg/μl) of 1. The insect mortality rating ([17]; .25 μg/μl) was 9 (91-100 percent mortality), the insect mortality rating ([18]; .078125 μg/μl) was 9 (91-100 percent mortality) and the insect mortality rating [19] was 9 (91-100 percent mortality). The insect mortality rating [20] was 9 (91-100 percent mortality), the insect mortality rating ([21]; 125 ppm) was 9 (91-100 percent mortality) and the insect mortality rating [22] was 9 (91-100 percent mortality).

CCCCCCOC(=O)n1c(C(F)(F)F)nc2c([N+](=O)[O-])cc(C(F)(F)F)cc21 [E, n-hexyl 2,6-bis(trifluoromethyl)-4-nitro-1-benzimidazolecarboxylate] showed an average mortality rating ([1]; 125 ppm) of 1, an average mortality rating ([1]; 250 ppm) of 4 and an average mortality rating ([1]; 500 ppm) of 3. It also gave an average mortality rating ([2]; 25 ppm) of 5, an average mortality rating ([2]; 50 ppm) of 5 and an average mortality rating ([2]; 100 ppm) of 7. It also gave an average mortality rating ([3]; 25 ppm) of 1, an average mortality rating ([3]; 50 ppm) of 3 and an average mortality rating ([3]; 100 ppm) of 5. The average mortality rating ([4]; 25 ppm) was 6, the average mortality rating ([4]; 50 ppm) was 6 and the average mortality rating ([4]; 100 ppm) was 8. The average mortality rating ([5]; 5 ppm) was 3, the average mortality rating ([5]; 10 ppm) was 5 and the average mortality rating ([5]; 25 ppm) was 9 (91-100 percent mortality). It also gave an average mortality rating ([8]; 10 ppm) of 1, an average mortality rating ([8]; 25 ppm) of 2 and an average mortality rating ([8]; 50 ppm) of 3. For the same compound, the average mortality rating ([8]; 100 ppm) was 1, the average mortality rating ([9]; 10 ppm) was 9 (91-100 percent mortality) and the average mortality rating ([9]; 25 ppm) was 9 (91-100 percent mortality). The average mortality rating ([9]; 50 ppm) was 7, the average mortality rating ([9]; 100 ppm) was 8 and the average mortality rating ([23]; 0.010 ppm) was 0 (0-10%). For the same compound, the average mortality rating ([23]; 0.025 ppm) was 0 (0-10%), the average mortality rating ([23]; 0.05 ppm) was 1 (15-20%) and the average mortality rating ([23]; 0.1 ppm) was 8 (85-90%). It also gave an average mortality rating ([16]; 0.03 μg/μl) of 2, an average mortality rating ([16]; 0.07 μg/μl) of 2 and an average mortality rating ([16]; 0.1 μg/μl) of 4. The insect mortality rating ([17]; .0625 μg/μl) was 9 (91-100 percent mortality), the insect mortality rating ([18]; .3125 μg/μl) was 9 (91-100 percent mortality) and the insect mortality rating [19] was 9 (91-100 percent mortality). The insect mortality rating [20] was 9 (91-100 percent mortality), the insect mortality rating ([21]; 250 ppm) was 9 (91-100 percent mortality) and the insect mortality rating [22] was 9 (91-100 percent mortality).
